Measured values reported in a melting point compilation (Tetko et al.; mined from patent text by program, amines drawn as free bases though some values may be those of a salt).

Point of comparison: `C(=Nc1ncc[nH]1)c1ccccc1`, melting point 122 °C. Against it:
- O=c1n(CCO)c2ccccc2n1-c1ccc(F)cc1 — higher, 124 to 126 °C
- N#Cc1cc(C(=O)NN2CCOCC2)ccc1OCC(=O)O — higher, 205 to 206 °C
- C[C@]1(N2Cc3c(OCc4ccc(CN5CCOCC5)cc4)cccc3C2=O)CCC(=O)NC1=O — higher, 178 to 180 °C
- NS(=O)(=O)c1ccc(NN=C2C(=O)Nc3ccc(C(=O)NCc4ccncc4)cc32)cc1 — higher, 211 to 215 °C
- CCOC(=O)c1ccc2[nH]ccc2c1 — lower, 94 to 95 °C
- NC(=O)c1cccc(-c2ccc(F)c3cc(Cc4cccc(C(F)(F)F)c4)sc23)c1 — higher, 139 to 140 °C
- C#CCC1C(=O)NOc2cc(F)c(NC(=S)N3CCCC=N3)cc21 (stereo not drawn) — higher, 151 to 155 °C
- Cn1cnnc1SCC(=O)C12CC3CC(CC(C3)C1)C2 — higher, 134 to 136 °C
- COC(=O)c1cc(N)c(Oc2cc(C)cc(C)c2)c(S(N)(=O)=O)c1 — higher, 195 to 196 °C
- CCn1c2cccc(C=O)c2c2c3ccccc3ccc21 — lower, 90.5 to 91.5 °C
- O=C(O)Cc1cc(Br)c2c(c1)CCC(C(F)(F)F)N2 (stereo not drawn) — lower, 111 to 112 °C
- CC1(C)CC1C(=O)NC(=CCCC(=O)O)C(=O)O (stereo not drawn) — higher, 163 to 165 °C
- NC(=O)c1cn(CC2CC2)c2ccccc12 — higher, 170 °C
- C(=C\c1nc(COc2cccc(CCCn3ccnc3)c2)co1)/c1ccccc1 — lower, 86 to 87 °C
- CCC(CC)NC1=NS(=O)(=O)c2ccc(Cl)cc2N1 — higher, 224 to 226 °C
- Cn1nc(-c2ccccc2Cl)nc1-c1ccccc1Cl — lower, 82 to 85 °C
- COc1ccccc1-c1c(NC(=O)OC(C)(C)C)oc(=O)c2ccccc12 — higher, 203 to 205 °C
- CC(C)(C)[C@@H](NC(=O)c1cc(Cl)cc(Cl)c1)NC1C(=O)C(=O)C1Nc1cccnc1Cl (stereo partly drawn) — higher, 233 to 234 °C
- Cc1c2c(c(C)c3c1NC(C)(C)C3)OC(C)(CI)C2 (stereo not drawn) — lower, 100 to 104 °C
- CCOC(=O)COc1ccc2ncnc(Nc3ccc(F)c(Cl)c3)c2c1 — higher, 161 to 163 °C
- CCCc1nccn1-c1nc(-c2ccc(Cl)cc2)c(CCC(=O)O)o1 — higher, 174 to 175 °C
- COc1cc(O[C@@H](C)C(=O)O)c(Cl)cc1Cl — lower, 114 to 115 °C
- COC(=O)C1CN1C(c1ccccc1)(c1ccccc1)c1ccccc1 (stereo not drawn) — higher, 127 to 128 °C
- Cc1ccc(Nc2c(C)cc(Cl)cc2Cl)c(CC(=O)O)c1 — higher, 137 to 141 °C
- Cc1ccc(NC(=O)c2cccc(N(C)C)c2)cc1Nc1ncc(-c2cccnc2)o1 — higher, 228 °C
- O=C(Cc1cccc(Cl)c1F)c1ccc(F)c(Cl)c1 — lower, 109 to 111 °C
- Cc1cccc(-c2[nH]c(C(C)C)nc2-c2cccc(-c3ccncc3)c2)n1 — lower, 84 to 86 °C
- COC(=O)c1ccc2c(c1)S(=O)(=O)N=CN2C1CC1 — higher, 192 to 195 °C
- COc1ccc(-c2c3c(cc4ccc5c(c24)OCO5)C(=O)NC3)cc1 — higher, 266 to 269 °C
- CSC1C=C2C=CC=CN2N1[N+](=O)[O-] (stereo not drawn) — higher, 225 °C
- O=Cc1cccc(C=Cc2ccccc2)c1 — lower, 90 °C
- CC(C)c1ccc2ncn(/C=C/C(=O)NCCNCc3ccccn3)c(=O)c2c1 — lower, 91 to 95 °C
- COc1cc(N2CCCN(C3CCN(C)CC3)CC2)ccc1Nc1ncc2ccc(-c3ccccc3N(C)S(C)(=O)=O)n2n1 — lower, 90 to 97 °C
- COc1cc(OC)c2cc(-c3cc(OC)c(OC)c(OC)c3)oc2c1 — higher, 131 to 132 °C
- CN(C)CCOC1=C(c2ccccc2)CN(Cc2ccco2)C1=O — higher, 145 to 148 °C
- CC1(CO)COC(Cn2ccnc2)(c2ccc(Cl)cc2Cl)OC1 (stereo not drawn) — higher, 174 to 175 °C
- C#CCN(Cc1ccc2nc(C)[nH]c(=O)c2c1)c1ccc(C(=O)NC(COC(C)=O)c2cccc([N+](=O)[O-])c2)cc1 (stereo not drawn) — higher, 133 to 135 °C
- CONC(=O)C(Cc1ccccc1)N(C)C(=O)C1CCCCC1C(=O)O (stereo not drawn) — higher, 168 to 171 °C
- N#Cc1nc(-c2ccccc2)c(-c2ccccc2)nc1Cl — higher, 201 to 204 °C
- COC(=O)c1cn(S(=O)(=O)c2ccc(C)cc2)c(C)c1C — lower, 108 to 114 °C
- Clc1nc(Cl)nc(NC2CC2)n1 — lower, 99 to 101 °C
- CCOC(=O)c1c(N=Cc2cccs2)sc(N=Cc2ccc([N+](=O)[O-])s2)c1C(=O)OCC — higher, 220 to 222 °C
- O=c1c2c(CCc3ccccc3)n[nH]c2c2cccnc2n1-c1ccccc1 — higher, 248 to 250 °C
- Cc1ccc(S(=O)(=O)NCCCCOc2ccc(-c3nc(-c4ccc(Cl)cc4)cs3)cc2)cc1 — higher, 158 to 159 °C
- O=C(NNc1ccc(NC(=S)NCc2ccccc2)cc1)c1ccc(Cl)cc1 — higher, 197 to 199 °C
- CCCC(=O)Nc1n[nH]c2cc(-c3ccc(CC)cc3)ccc12 — higher, 210 °C
- O=C(Cc1ccc(-c2ccc(C(CC3CCOCC3)c3ccc(S(=O)(=O)C4CC4)cc3)[nH]2)nc1)N1CCOCC1 (stereo not drawn) — higher, 202 to 203 °C
- CN1C(=O)CC(Sc2cc(C(C)(C)C)c(O)c(C(C)(C)C)c2)C1=O (stereo not drawn) — higher, 132 °C
- CCS(=O)c1ccc(-c2nc3n(c2-c2ccncc2)CCC3)cc1 (stereo not drawn) — lower, 108 to 110 °C
- COC(=O)COc1nc(N)nc(-c2ccccc2)c1-c1ccc(=O)n(C(C)C)n1 — higher, 150 to 152 °C
- O=C(CCl)NCc1ccc2ccn(C3CCN(CCc4ccc(F)cc4)CC3)c2c1 — higher, 143 to 144 °C
- CC(C(N)=O)c1ccc2c(c1)oc1ccc(Cl)cc12 (stereo not drawn) — higher, 210 to 211 °C
- Cc1cccc(Oc2ccc3ccc(N)nc3n2)c1 — lower, 100 °C
- NCc1cc(-c2ccc(C(F)(F)F)cc2)no1 — lower, 59 °C
- CCOC(=O)c1cn(C)cc(-c2ccccc2)c1=O — lower, 107 to 108 °C
- CC(C)SC1CCC(=O)N1 (stereo not drawn) — lower, 77 to 79 °C
- Cc1c(NC(=O)N2C[C@H](O[Si](C)(C)C(C)(C)C)C[C@H]2CO)ccc(C#N)c1Cl — higher, 169 to 171 °C
- O=C(O)CC(Sc1ccccc1)c1ccccc1 (stereo not drawn) — lower, 85 to 90 °C
- CC12CC(O)C3(F)C(CCC4=CC(=O)C=CC43C)C1CCC2S (stereo not drawn) — higher, 295 to 297 °C
- Nc1cc(-n2cc(C(=O)O)c(=O)c3cc(F)c(Cl)nc32)c(F)cc1Cl — higher, > 270 °C
- Cc1cccc2c(C3=CCN(C[C@H](O)COc4cccc5[nH]ccc45)CC3)c[nH]c12 — higher, 155 to 158 °C
- COCCOCOc1c(C(C)(C)C)cc(-c2noc(=O)[nH]2)cc1C(C)(C)C — lower, 112 to 114 °C
- Cn1nnnc1-c1cn(C)c2cc(C(F)(F)F)ccc2c1=O — higher, 220 to 221 °C
- C=CCOc1ccc(-c2nc3cnccc3[nH]2)c(OC(C)C)c1 — higher, 179 °C
- Cc1nc(/C=C/c2cn(-c3ccccc3)nc2O)cs1 — higher, 211 to 212 °C
- NNC(=O)c1ccnc2[nH]c(CCc3ccccc3)cc12 — higher, 233 to 234 °C
- CN1CCN(c2nc3ccccc3nc2Cc2ccccc2)CC1 — lower, 89 to 90 °C
- COC(=O)c1ccc(COc2ccc3cc(-c4ccc(-c5ccccc5)n4Cc4ccc(C(F)(F)F)cc4)ccc3c2)cc1 — higher, 154 to 155 °C
- CCOC(=O)c1sc(SC)c2c1CCc1cn[nH]c1-2 — higher, 207 to 208 °C
- COc1ccc(C(=O)C2=C(c3ccc(OC)cc3)CCc3cc(OC)ccc32)cc1 — higher, 172 to 173 °C
- OC1CSC(Oc2cccnc2Br)C(O)C1O (stereo not drawn) — higher, 151 °C
- Cc1ccc(-c2nc(CCC(O[Si](C)(C)C(C)(C)C)c3ccc(C=O)s3)c(C)o2)cc1 (stereo not drawn) — not separable, 122 to 124 °C
